According to PubChem BioAssay AID210 (DTP/NCI, 2004):
Toxic doses and inconclusive results are not listed. Rule for the calls: active = survival T/C of 150% or more; inactive = T/C below 125% in these data.

System: CD2F1 mice, ip Colon 26 adenocarcinoma, median survival T/C
Experiment: NCI In Vivo Anticancer Drug Screen. Data for tumor model Colon 26 Adenocarcinoma (intraperitoneal) in CD2F1 (CDF1) mice
Conditions: endpoint: median survival time, higher = longer survival
Experimental: The antitumor activity of compounds was measured in mice bearing transplantable tumors. Survival or tumor size were measured and the results are expressed as the measurement made in the treated group (T) divided by the measurement made in the vehicle treated control group (C). The tumor model used in this assay is Colon 26 Adenocarcinoma (intraperitoneal) in CD2F1 (CDF1) mice

[1] = dose: 12.5 mg/kg/injection, schedule: Q04DX003 (ip), vehicle: Klucel (hydroxypropylcellulose) (HPC)
[2] = dose: 25.0 mg/kg/injection, schedule: Q04DX003 (ip), vehicle: Klucel (hydroxypropylcellulose) (HPC)
[3] = dose: 50.0 mg/kg/injection, schedule: Q04DX003 (ip), vehicle: Klucel (hydroxypropylcellulose) (HPC)
[4] = dose: 100.0 mg/kg/injection, schedule: Q04DX003 (ip), vehicle: Klucel (hydroxypropylcellulose) (HPC)
[5] = dose: 200.0 mg/kg/injection, schedule: Q04DX003 (ip), vehicle: Klucel (hydroxypropylcellulose) (HPC)
[6] = dose: 400.0 mg/kg/injection, schedule: Q04DX003 (ip), vehicle: Klucel (hydroxypropylcellulose) (HPC)

Measured: T/C

CC(C)NCC(O)COc1cccc2ccccc12 (stereo not given)
inactive: dose: 4.0 mg/kg/injection, schedule: Q04DX003 (ip), vehicle: Klucel (hydroxypropylcellulose) (HPC) 109 % of control | dose: 8.0 mg/kg/injection, schedule: Q04DX003 (ip), vehicle: Klucel (hydroxypropylcellulose) (HPC) 102 % of control | dose: 16.0 mg/kg/injection, schedule: Q04DX003 (ip), vehicle: Klucel (hydroxypropylcellulose) (HPC) 107 % of control | dose: 32.0 mg/kg/injection, schedule: Q04DX003 (ip), vehicle: Klucel (hydroxypropylcellulose) (HPC) 101 % of control | dose: 64.0 mg/kg/injection, schedule: Q04DX003 (ip), vehicle: Klucel (hydroxypropylcellulose) (HPC) 107 % of control

CSC1SCC2C(=O)N(C)C(C(C)C)C(=O)OCC(NC(=O)c3cnc4ccccc4n3)C(=O)NC(C)C(=O)N(C)C1C(=O)N(C)C(C(C)C)C(=O)OCC(NC(=O)c1cnc3ccccc3n1)C(=O)NC(C)C(=O)N2C (stereo not given)
inactive: dose: 25.0 micrograms/kg/injection, schedule: Q01DX004 (ip), vehicle: saline sonified 87 % of control | dose: 100.0 micrograms/kg/injection, schedule: Q01DX004 (ip), vehicle: saline sonified 86 % of control | dose: 100.0 micrograms/kg/injection, schedule: Q03DX002 (ip), vehicle: saline sonified 94 % of control | dose: 150.0 micrograms/kg/injection, schedule: Q03DX002 (ip), vehicle: saline sonified 90 % of control

CNc1nc(N(C)C)nc(N(C)C)n1
inactive: dose: 6.25 mg/kg/injection, schedule: Q04DX003 (ip), vehicle: water 105 % of control | dose: 12.5 mg/kg/injection, schedule: Q04DX003 (ip), vehicle: water 101 % of control | dose: 25.0 mg/kg/injection, schedule: Q04DX003 (ip), vehicle: water 98 % of control | dose: 50.0 mg/kg/injection, schedule: Q04DX003 (ip), vehicle: water 112 % of control | dose: 100.0 mg/kg/injection, schedule: Q04DX003 (ip), vehicle: water 121 % of control | dose: 200.0 mg/kg/injection, schedule: Q04DX003 (ip), vehicle: water 110 % of control

ClCCCCCCCCCCc1ccccc1
inactive: [1] 102 % of control | [2] 106 % of control | [3] 100 % of control | [4] 100 % of control | [5] 106 % of control | [6] 114 % of control

CC(CN1CC(=O)NC(=O)C1)N1CC(=O)NC(=O)C1 (stereo not given)
inactive: [1] 100 % of control | [2] 98 % of control | [3] 102 % of control

[N-]=[N+]=CC(=O)CCC(N)C(=O)O (stereo not given)
inactive: dose: 0.2 mg/kg/injection, schedule: Q04DX003 (ip), vehicle: saline 102 % of control | dose: 0.39 mg/kg/injection, schedule: Q04DX003 (ip), vehicle: saline 108 % of control | dose: 0.78 mg/kg/injection, schedule: Q04DX003 (ip), vehicle: saline 108 % of control | dose: 1.56 mg/kg/injection, schedule: Q04DX003 (ip), vehicle: saline 111 % of control | dose: 3.13 mg/kg/injection, schedule: Q04DX003 (ip), vehicle: saline 120 % of control | dose: 6.25 mg/kg/injection, schedule: Q04DX003 (ip), vehicle: saline 119 % of control

CC1(CO)C(=O)CCC2(C)C1CCC1CC3CC12CCC3(O)CO (stereo not given)
inactive: dose: 37.5 mg/kg/injection, schedule: Q04DX002 (ip), vehicle: distilled water + Tween-80 97 % of control | dose: 75.0 mg/kg/injection, schedule: Q04DX002 (ip), vehicle: distilled water + Tween-80 101 % of control | dose: 150.0 mg/kg/injection, schedule: Q04DX002 (ip), vehicle: distilled water + Tween-80 94 % of control

CC[C@@]1(O)C[C@H](OC2CC(N(C)C)C(OC3CC(O)C(OC4CCC(=O)C(C)O4)C(C)O3)C(C)O2)c2c(cc3c(c2O)C(=O)c2c(O)cccc2C3=O)[C@H]1C(=O)OC (stereo not given in full)
inactive: dose: 6.2 mg/kg/injection, schedule: Q07DX003 (iv), vehicle: water 105 % of control | dose: 10.0 mg/kg/injection, schedule: Q07DX003 (iv), vehicle: water 119 % of control | dose: 16.0 mg/kg/injection, schedule: Q07DX003 (iv), vehicle: water 117 % of control

[I][Hg][CH2]C1OCCOC1[CH2][Hg][I] (stereo not given)
inactive: [2] 103 % of control | [3] 100 % of control

Cc1ccc(NC(=O)Oc2ccc(Br)cc2Br)c([N+](=O)[O-])c1
inactive: dose: 12.5 mg/kg/injection, schedule: Q04DX003 (ip), vehicle: saline with Tween-80 97 % of control | dose: 25.0 mg/kg/injection, schedule: Q04DX003 (ip), vehicle: saline with Tween-80 100 % of control | dose: 50.0 mg/kg/injection, schedule: Q04DX003 (ip), vehicle: saline with Tween-80 100 % of control | dose: 100.0 mg/kg/injection, schedule: Q04DX003 (ip), vehicle: saline with Tween-80 107 % of control | dose: 200.0 mg/kg/injection, schedule: Q04DX003 (ip), vehicle: saline with Tween-80 117 % of control | dose: 400.0 mg/kg/injection, schedule: Q04DX003 (ip), vehicle: saline with Tween-80 123 % of control

CC(=O)Oc1ccccc1C(=O)O
inactive: dose: 72.0 mg/kg/injection, schedule: Q04DX002 (ip), vehicle: saline with Tween-80 89 % of control

Nc1nc([Se])c2ncn(C3OC(CO)C(O)C3O)c2n1 (stereo not given)
inactive: dose: 4.0 mg/kg/injection, schedule: Q04DX003 (ip), vehicle: saline 114 % of control | dose: 4.0 mg/kg/injection, schedule: Q04DX003 (ip), vehicle: suspension in saline 116 % of control | dose: 8.0 mg/kg/injection, schedule: Q04DX003 (ip), vehicle: saline 104 % of control | dose: 8.0 mg/kg/injection, schedule: Q04DX003 (ip), vehicle: suspension in saline 106 % of control | dose: 16.0 mg/kg/injection, schedule: Q04DX003 (ip), vehicle: saline 109 % of control | dose: 16.0 mg/kg/injection, schedule: Q04DX003 (ip), vehicle: suspension in saline 114 % of control | dose: 32.0 mg/kg/injection, schedule: Q04DX003 (ip), vehicle: saline 111 % of control | dose: 32.0 mg/kg/injection, schedule: Q04DX003 (ip), vehicle: suspension in saline 116 % of control | dose: 64.0 mg/kg/injection, schedule: Q04DX003 (ip), vehicle: saline 121 % of control | dose: 64.0 mg/kg/injection, schedule: Q04DX003 (ip), vehicle: suspension in saline 114 % of control

C[C@]1(O)CC[C@H]2[C@@H]3CCC4=CC(=O)CC[C@]4(C)[C@@]3(F)[C@@H](O)C[C@@]21C
inactive: [2] 94 % of control | [3] 105 % of control | [4] 108 % of control | [5] 99 % of control | [6] 97 % of control

CN(N=O)C(=O)N[C@@H](C=O)[C@@H](O)[C@H](O)[C@H](O)CO
inactive: dose: 12.5 mg/kg/injection, schedule: Q04DX003 (ip), vehicle: other 113 % of control | dose: 25.0 mg/kg/injection, schedule: Q04DX003 (ip), vehicle: other 110 % of control | dose: 50.0 mg/kg/injection, schedule: Q04DX003 (ip), vehicle: other 118 % of control | dose: 100.0 mg/kg/injection, schedule: Q04DX003 (ip), vehicle: other 124 % of control | dose: 200.0 mg/kg/injection, schedule: Q04DX003 (ip), vehicle: other 123 % of control
